Like-named read-outs stand apart in the source and are kept apart here.

These results are taken from publication PMC10082216 (Nature Communications, 2023).

Data set [1] deals with mature stage V gametocytes (NF54 strain). The experiment in a line: microbe, parasite or virus in culture. The format is cell-based, Plasmodium falciparum. In outline:
(§1)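 NF54 stage V gametocytes (day 17, density-purified, 0.5% hematocrit) exposed 24 h to compounds at 1.11 µM (primary) or in dose-response. Killing scored by MitoTracker staining; gametocytemia by Sybr Green/CellMask staining, with microsphiltration for stiffening. DMSO 0.05% negative control.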

Data set [2] shares this test system. The experiment in a line: High-throughput screening: killing effect by MitoTracker staining, primary screening at 1.11 µM and dose-response analysis. The format is cell-based, Plasmodium falciparum. The note with it: stage V gametocytes NF54, 24 h, dose-response analysis, N/A = not active in dose-response analysis, read-out: Killing IC50. The procedure, abridged: as §1

A short description of data set [3]: Hit scoring on safety in human subjects and pharmacokinetics. The note with it: for Score (PK): peak plasma concentration vs IC50. An excerpt: Hits from the ReFrame library were further selected based on safety, preferably oral administration (high score if oral), and potential availability for widespread use.
The next data set concerns human subjects. The note with it: cited from earlier work; for AE (%) / SAE (%): healthy volunteers.
The conditions of data set [4]: cited from earlier work.
Another data set has as its system P.falciparum Dd2. Also on record: method as in previously published reports (Table S1 legend). The note with it: 72 h; results in previous assays; ref previously published reports (Table S1 legend); read-out: 72-h Dd2-SybrGreen PBFS assay IC50; cited from earlier work.
The test system of another data set is HEK293T. The note with it: read-out: Cellular cytotoxicity assay IC50, HEK293T; 72 h; first value of cell; ref previously published reports (Table S1 legend); cited from earlier work.
The next data set relates to HepG2. The note with it: read-out: Cellular cytotoxicity assay IC50, HepG2; 72 h; second value of cell; ref previously published reports (Table S1 legend); cited from earlier work.
[5] abbreviates: stage V gametocytes NF54, 24 h, dose-response analysis, N/A = not active in dose-response analysis, read-out: Stiffening IC50 (retention).
Setting [6] is: 90 mg single dose in combination with sofosbuvir 400 mg, ref CTR20160149.
Setting [7] is: healthy volunteers, 90 mg single dose in combination with sofosbuvir 400 mg, ref CTR20160149.
The mark [8] stands for this setting: Plasmodium falciparum, NF54, 24 h, read-out: Stiffening IC50 (retention).
[9] abbreviates: Plasmodium falciparum, NF54, 24 h.
[10] abbreviates: 50 mg single dose, ref NCT01937975.
The mark [11] stands for this setting: healthy volunteers, 50 mg single dose, ref NCT01937975.
[12] abbreviates: 100 mg single dose in combination with sofosbuvir 400 mg, ref CTR20160602.
Where [13] appears, read: healthy volunteers, 100 mg single dose in combination with sofosbuvir 400 mg, ref CTR20160602.

For orientation: IC50 means the concentration that gives 50% inhibition. In the case of `CCN(CC)Cc1ccc2cc(COC(=O)Nc3ccc(C(=O)NO)cc3)ccc2c1.Cl.O` [Givinostat hydrochloride], the IC50 in data set [1] (setting [5]) was determined as 1400 nM. The IC50 in data set [2] was 2100 nM. Further, in data set [3], the “Score (safety)” value is given as 0 and the “Score (PK)” value is given as 0. In addition, the “patients with significant adverse events” value in the data set on human subjects (human, in vivo) is listed as “more than 15%”.
The Cmax is the peak of the concentration-time curve. As for `COC(=O)N[C@H](C(=O)N1CC2(CC2)C[C@H]1c1ncc(-c2ccc3c(c2)C(F)(F)c2cc(-c4ccc5nc([C@@H]6[C@H]7CC[C@H](C7)N6C(=O)[C@@H](NC(=O)OC)C(C)C)[nH]c5c4)ccc2-3)[nH]1)C(C)C` [Ledipasvir], the “safety in pregnant women” value in the data set on human subjects is “can be safely administered to pregnant women”. Besides, in the data set on human subjects (setting [6]), the “AE (%)” value was 42.9% and the “SAE (%)” value is listed as 0%. In data set [4] (setting [7]), the Cmax was 362 nM and the t1/2 was 39.9 h.
As for `CS(=O)(=O)c1ccc(-c2cnc(N)c(-c3ccc(C(F)(F)F)nc3)c2)cc1` [MMV-390048], the half-inhibitory concentration (IC50) in data set [1] (setting [8]) is 3500 nM; in data set [1] (Plasmodium falciparum, NF54, read-out: IC50 (killing and stiffening, given as range)), 3500 to 3900 nM; in data set [2] (setting [9]), 3860 nM; in data set [2], 3900 nM; with P.falciparum Dd2, 229 nM. Moreover, the “Score (safety)” value in data set [3] was 3. For the same molecule, the “Score (PK)” value in data set [3] is 2 (Peak plasma concentration between 1/3 IC50 and IC50 (Score = 2)). Moreover, the serum peak concentration in data set [4] (humans, highest 120 mg dose, ref 37 (McCarthy et al 2020)) is recorded as 2.8 µM.
As to `COC(=O)N[C@H](C(=O)N1CCC[C@H]1c1nc(-c2ccc3c(c2)O[C@@H](c2ccccc2)n2c-3cc3cc(-c4c[nH]c([C@@H]5CCCN5C(=O)[C@@H](NC(=O)OC)C(C)C)n4)ccc32)c[nH]1)C(C)C` [Elbasvir], in the data set with human subjects (setting [10]), the “AE (%)” value is recorded as 37.5% and the “SAE (%)” value was 0%. In addition, in data set [4] (setting [11]), the Cmax is 163 nM and the t1/2 is 25 h.
On to `COC(=O)N[C@H](C(=O)N1CCC[C@H]1C(=O)Nc1ccc([C@@H]2CC[C@@H](c3ccc(NC(=O)[C@@H]4CCCN4C(=O)[C@@H](NC(=O)OC)C(C)C)cc3)N2c2ccc(C(C)(C)C)cc2)cc1)C(C)C` [Ombitasvir], for which the t1/2 in data set [4] (human, in vivo) is 21 to 25 h.
With `CC(C)[C@H](C(=O)Nc1ccc(C(=O)NO)cc1)c1ccccc1` [AR-42], in data set [1] (setting [5]), the 50% inhibitory concentration (IC50) turned out to be 1900 nM. Also, the IC50 in data set [2] came to 1500 nM. In data set [3], the “Score (safety)” value turned out to be 0 and the “Score (PK)” value was found to be 0. Also, the “rate of life-threatening adverse events” value in the data set with human subjects (human, in vivo) is above 25%.
Regarding `CN(C)Cc1c(C(=O)NCCOc2ccc(C(=O)NO)cc2)oc2ccccc12` [Abexinostat], the IC50 in data set [1] (setting [8]) worked out at 640 nM; in data set [2] (setting [9]), 2000 nM. Further, in data set [3], the “Score (safety)” value is on record as 0. Moreover, the “Score (PK)” value in data set [3] stood at 0. Moreover, the “patients with significant adverse events” value in the data set on human subjects (human, in vivo) is “more than 15%”.
For the molecule `COC[C@H]1C[C@@H](c2ncc(-c3ccc4c(c3)COc3cc5c(ccc6nc([C@@H]7CC[C@H](C)N7C(=O)[C@@H](NC(=O)OC)C(C)C)[nH]c65)cc3-4)[nH]2)N(C(=O)[C@H](NC(=O)OC)c2ccccc2)C1` [Velpatasvir], in the data set with human subjects (setting [12]), the “AE (%)” value was 42.9% and the “SAE (%)” value is 0%. For the same molecule, in data set [4] (setting [13]), the Cmax was 584 nM and the t1/2 is 16.8 h.
Turning to `COc1ccc(-c2nc(N3CCOCC3)c3sc(CN(C)c4ncc(C(=O)NO)cn4)cc3n2)cn1` [CUDC-907], the IC50 in data set [1] (setting [8]) was 1860 nM; in data set [2] (setting [9]) it was 3320 nM; with P.falciparum Dd2, 18 nM; in the data set with HEK293T, 30 nM; in the data set on HepG2 it was 3 nM. For the same molecule, the “Score (safety)” value in data set [3] amounted to 0. The “Score (PK)” value in data set [3] stood at 0. In the data set on human subjects (ref NCT02674750 (CUDC-907), NCT02795819 (AR-42)), the “rate of life-threatening adverse events” value is recorded as above 25%.
For the molecule `COC(=O)N[C@H](C(=O)N1CCC[C@H]1c1nc(-c2ccc(-c3ccc(-c4c[nH]c([C@@H]5CCCN5C(=O)[C@@H](NC(=O)OC)C(C)C)n4)cc3)cc2)c[nH]1)C(C)C` [Daclatasvir], in data set [4] (human, in vivo, 30 mg), the peak concentration (Cmax) was 945 nM and the t1/2 was 12.4 h.
